According to patent publication US9737542B2, “Pyrrolotriazine kinase inhibitors” (BRISTOL-MYERS SQUIBB COMPANY, priority 2013, dated 2017):
pIC50: −log10 of the molar value.

What follows are molecules tested against GST-Xa-hAAK1 (Homo sapiens (Human), UniProt Q2M2I8) (assay: AAK1 Kinase Assay). Conditions: ATP 22 μM; 3 hours at room temperature.
Assay type: biochemical

Chain of GST-Xa-hAAK1 (Q2M2I8 whole entry): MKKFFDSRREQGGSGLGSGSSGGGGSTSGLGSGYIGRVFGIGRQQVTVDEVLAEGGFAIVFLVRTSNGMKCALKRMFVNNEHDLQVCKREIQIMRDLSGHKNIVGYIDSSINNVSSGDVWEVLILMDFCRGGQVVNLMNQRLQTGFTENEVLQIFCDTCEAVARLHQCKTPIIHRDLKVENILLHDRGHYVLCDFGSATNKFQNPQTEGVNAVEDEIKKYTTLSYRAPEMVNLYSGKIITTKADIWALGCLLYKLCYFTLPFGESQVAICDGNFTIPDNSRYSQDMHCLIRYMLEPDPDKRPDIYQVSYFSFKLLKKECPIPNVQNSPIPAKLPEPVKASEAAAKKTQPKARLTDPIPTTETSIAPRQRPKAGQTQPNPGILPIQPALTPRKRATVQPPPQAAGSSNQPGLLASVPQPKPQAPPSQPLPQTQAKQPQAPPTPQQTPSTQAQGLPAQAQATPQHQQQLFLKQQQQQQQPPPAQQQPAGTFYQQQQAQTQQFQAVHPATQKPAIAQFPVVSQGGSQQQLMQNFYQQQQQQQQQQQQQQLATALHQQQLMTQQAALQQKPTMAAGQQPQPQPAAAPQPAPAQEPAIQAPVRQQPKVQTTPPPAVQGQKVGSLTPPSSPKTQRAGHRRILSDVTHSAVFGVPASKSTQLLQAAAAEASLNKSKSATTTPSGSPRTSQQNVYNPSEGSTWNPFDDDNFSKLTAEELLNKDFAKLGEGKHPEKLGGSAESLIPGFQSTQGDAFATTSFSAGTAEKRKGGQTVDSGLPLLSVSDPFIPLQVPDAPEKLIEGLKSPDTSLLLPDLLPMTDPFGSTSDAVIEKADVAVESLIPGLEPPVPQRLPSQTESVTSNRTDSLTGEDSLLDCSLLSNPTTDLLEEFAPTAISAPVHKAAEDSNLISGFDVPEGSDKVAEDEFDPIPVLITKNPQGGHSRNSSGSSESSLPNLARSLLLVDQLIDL

| SMILES | pIC50 |
| --- | --- |
| CC(C)n1nnc(-c2cccc(Nc3ncnn4ccc(CN5CCC(C#N)CC5)c34)c2)n1 [Example 65, 1-((4-((3-(2-isopropyl-2H-tetrazol-5-yl)phenyl)amino)pyrrolo[2,1-f][1,2,4]triazin-5-yl)methyl)piperidine-4-carbonitrile] | 7.14 |
| Cc1ccn2ncnc(Nc3cccc(-c4noc(C(C)(C)CN)n4)c3)c12 [Example 91, N-(3-(5-(1-amino-2-methylpropan-2-yl)-1,2,4-oxadiazol-3-yl)phenyl)-5-methylpyrrolo[2,1-f][1,2,4]triazin-4-amine] | 7.20 |
| NC1CCN(Cc2ccn3ncnc(Nc4cccc(-c5noc(C6CCCCC6)n5)c4)c23)CC1 [Example 22, 5-((4-aminopiperidin-1-yl)methyl)-N-(3-(5-cyclohexyl-1,2,4-oxadiazol-3-yl)phenyl)pyrrolo[2,1-f][1,2,4]triazin-4-amine] | 7.85 |
| CC(C)n1nnc(-c2cccc(Nc3ncnn4ccc(CN5CCC(N)CC5)c34)c2)n1 [Example 8, 5-((4-aminopiperidin-1-yl)methyl)-N-(3-(2-isopropyl-2H-tetrazol-5-yl)phenyl)pyrrolo[2,1-f][1,2,4]triazin-4-amine] | 8.14 |
| CC(C)C[C@@H](N)C(=O)Nc1cccc(Nc2ncnn3ccc(C(=O)N4CCC(N)CC4)c23)c1 [Example 110, (R)-2-amino-N-(3-((5-(4-aminopiperidine-1-carbonyl)pyrrolo[2,1-f][1,2,4]triazin-4-yl)amino)phenyl)-4-methylpentanamide] | 5.11 |
| CC(C)n1nnc(-c2cccc(Nc3ncnn4ccc(C(=O)N5CCC(N)CC5)c34)c2)n1 [Example 109, (4-aminopiperidin-1-yl)(4-((3-(2-isopropyl-2H-tetrazol-5-yl)phenyl)amino)pyrrolo[2,1-f][1,2,4]triazin-5-yl)methanone] | 5.32 |
| Cc1ccn2ncnc(Nc3cccc(-c4noc(C(C)(C)CCl)n4)c3)c12 [Example 90, N-(3-(5-(1-chloro-2-methylpropan-2-yl)-1,2,4-oxadiazol-3-yl)phenyl)-5-methylpyrrolo[2,1-f][1,2,4]triazin-4-amine] | 7.28 |
| CC(C)n1nnc(-c2cccc(Nc3ncnn4ccc(C(=O)NCC5CC5)c34)c2)n1 [Example 105, N-(cyclopropylmethyl)-4-((3-(2-isopropyl-2H-tetrazol-5-yl)phenyl)amino)pyrrolo[2,1-f][1,2,4]triazine-5-carboxamide] | 6.11 |

Same assay, conditions: ATP 22 μM; 3 hours at room temperature; listed as IC50 ranges

| SMILES | pIC50 |
| --- | --- |
| CC(C)c1nc(-c2cc(Cl)cc(Nc3ncnn4ccc(CN5CCC(N)CC5)c34)c2)no1 [Example 45, 5-((4-aminopiperidin-1-yl)methyl)-N-(3-chloro-5-(5-isopropyl-1,2,4-oxadiazol-3-yl)phenyl)pyrrolo[2,1-f][1,2,4]triazin-4-amine] | 7.00 to 8.00 |
| c1cc(Nc2ncnn3ccc(CN4CC5CNCC5C4)c23)cc(-c2nnc(C3CC3)s2)c1 (stereo not drawn) [Example 26, N-(3-(5-cyclopropyl-1,3,4-thiadiazol-2-yl)phenyl)-5-((hexahydropyrrolo[3,4-c]pyrrol-2(1H)-yl)methyl)pyrrolo[2,1-f][1,2,4]triazin-4-amine] | 6.00 to 7.00 |
| CNC1CCN(Cc2ccn3ncnc(Nc4cccc(-c5noc(C(C)(C)C)n5)c4)c23)CC1 [Example 41, N-(3-(5-(tert-butyl)-1,2,4-oxadiazol-3-yl)phenyl)-5-((4-(methylamino)piperidin-1-yl)methyl)pyrrolo[2,1-f][1,2,4]triazin-4-amine] | 7.00 to 8.00 |
| CNC1CCN(Cc2ccn3ncnc(Nc4cccc(-c5noc(C(C)C)n5)c4)c23)CC1 [Example 39, N-(3-(5-isopropyl-1,2,4-oxadiazol-3-yl)phenyl)-5-((4-(methylamino)piperidin-1-yl)methyl)pyrrolo[2,1-f][1,2,4]triazin-4-amine] | 7.00 to 8.00 |
| CC(C)C[C@@H](N)C(=O)Nc1cccc(Nc2ncnn3ccc(CN4CCC(N)CC4)c23)c1 [Example 67, (R)-2-amino-N-(3-((5-((4-aminopiperidin-1-yl)methyl)pyrrolo[2,1-f][1,2,4]triazin-4-yl)amino)phenyl)-4-methylpentanamide] | 6.00 to 7.00 |
| CNC1CCN(Cc2ccn3ncnc(Nc4cccc(-c5nnc(C(C)C)s5)c4)c23)CC1 [Example 27, N-(3-(5-isopropyl-1,3,4-thiadiazol-2-yl)phenyl)-5-((4-(methylamino)piperidin-1-yl)methyl)pyrrolo[2,1-f][1,2,4]triazin-4-amine] | 6.00 to 7.00 |
| NC1CCN(Cc2ccn3ncnc(Nc4cccc(-c5noc(C6CC6)n5)c4)c23)CC1 [Example 47, 5-((4-aminopiperidin-1-yl)methyl)-N-(3-(5-cyclopropyl-1,2,4-oxadiazol-3-yl)phenyl)pyrrolo[2,1-f][1,2,4]triazin-4-amine] | 7.00 to 8.00 |
| CC(C)c1nnc(-c2cccc(Nc3ncnn4ccc(CN5CC[C@@H](N)[C@H](O)C5)c34)c2)s1 [Example 48, (3R,4R)-4-amino-1-((4-((3-(5-isopropyl-1,3,4-thiadiazol-2-yl)phenyl)amino)pyrrolo[2,1-f][1,2,4]triazin-5-yl)methyl)piperidin-3-ol] | 7.00 to 8.00 |

The molecules below were run on mice (pain response, formalin paw test) (assay: formalin paw test). Conditions: 60 mg/kg sc; % response relative to gabapentin 200 mg/kg.
Assay type: in vivo, mouse
Description: AAK1 homozygous (−/−) and their wild-type (+/+) littermates were tested using the formalin paw test in order to assess their acute and tonic nociceptive responses. For these tests, Automatic Nociception Analyzers (purchased from the Ozaki lab at University of California, San Diego) were used. A metal band was placed around the left hind paw of each mouse 30 minutes prior to testing. After the 30-minute acclimation period, 20 μl of 5% formalin is subcutaneously injected in the dorsal surface of the left hind paw. Mice were individually housed in cylindrical chambers for 45 minutes. Fresh 5% formalin solution was prepared by diluting formaldehyde (Formalde-fresh 20%, Fisher Scientific, Fair Lawn, N.J.) with distilled water. Investigatory compounds were administered 30 minutes prior to formalin injection.
A computer recorded flinches per minute, total flinches for phase I (acute phase=first 8 minutes), and total flinches for phase II (tonic phase=time between minutes 20-40 or 10-60 minutes for drug studies) through an electromagnetic field. See Yaksh T L, Ozaki G, McCumber D, Rathbun M, Svensson C, Malkmus S, Yaksh M C. An automated flinch detecting system for use in the formalin nociceptive bioassay. J Appl Physiol., 2001; 90:2386-402.
The same test was used to confirm that the administration of an AAK1 inhibitor can also affect pain response. […]

| SMILES | Response [%] |
| --- | --- |
| CC(C)c1nc(-c2cccc(NC(=O)c3cnc4ccc(NC5CCC(N)CC5)nn34)c2)no1 [6-(((1R,4R)-4-aminocyclohexyl)amino)-N-(3-(5-isopropyl-1,2,4-oxadiazol-3-yl)phenyl)imidazo[1,2-b]pyridazine-3-carboxamide] | 59 |

Same assay, conditions: 200 mg/kg sc; % response relative to gabapentin 200 mg/kg

| SMILES | Response [%] |
| --- | --- |
| NCC1(CC(=O)O)CCCCC1 [Gabapentin, reference compound] | 73 |
